This note sets out measurements from patent US7847065B2, “CXADRL1 polypeptides relating to human cancers” (Oncotherapy Science, Inc., priority 2002, dated 2010).

Read-outs that look alike come from different tables or passages of the source. Ends that are not written are not given here.

One data set concerns RNF43. Nature of the data set: Suppression of RNF43 expression by antisense S-oligonucleotide (semi-quantitative RT-PCR), LoVo cells. Type of data set: cell-based, human. To be noted: 12 hours after transfection. The procedure:
Total RNA was extracted with Qiagen RNeasy kit (Qiagen) or Trizol reagent (Life Technologies) according to the manufacturers' protocols. Ten-microgram aliquots of total RNA were reversely transcribed for single-stranded cDNAs using poly dT12-18 primer (Amersham Pharmacia Biotech) with Superscript II reverse transcriptase (Life Technologies). Each single-stranded cDNA preparation was diluted for subsequent PCR amplification by standard RT-PCR experiments carried out in 20 μl volumes of PCR buffer (TaKaRa). Amplification was conducted under following conditions: denaturing for 4 min at 94° C., followed by 20 (for GAPDH), 35 (for CXADRL1), 30 (for GCUD1), 30 (for RNF43) cycles of 94° C. for 30 s, 56° C. for 30 s, and 72° C. for 45 s, in GeneAmp PCR system 9700 (Perkin-Elmer, Foster City, Calif.). Primer sequences were; for GAPDH: forward, 5′-[…] (SEQ ID NO: 7) and reverse, 5′-[…] (SEQ ID NO: 8); for CXADRL1: forward, 5′-[…] (SEQ ID NO: 9) and reverse: 5′-TATAAACCAG CTGAGTCCAGAG (SEQ ID NO: 10); for GCUD1 forward: 5′-[…] (SEQ ID NO: 11) reverse: 5′-[…] (SEQ ID NO: 12), for RNF43 forward; 5′-[…]-3′ (SEQ ID NO: 13) and reverse; 5′-[…]-3′ (SEQ ID NO: 14).
Cells plated onto 10-cm dishes (2×10^5 cells/dish) were transfected either with plasmid, or synthetic S-oligonucleotides of CXADRL1, GCUD1, or RNF43 using LIPOFECTIN Reagent (GIBCO BRL). […]

The test system of another data set is LoVo colon cancer cells. Nature of the data set: MTT assay after transfection of S-oligonucleotides, LoVo. It is filed as cell-based, human. As to conditions: six days after transfection. The method, then:
Cells plated onto 10-cm dishes (2×10^5 cells/dish) were transfected either with plasmid, or synthetic S-oligonucleotides of CXADRL1, GCUD1, or RNF43 using LIPOFECTIN Reagent (GIBCO BRL). Then the cells were cultured with the addition of an appropriate concentration of geneticin for six to twelve days. The cells were then fixed with 100% methanol and stained by Giemsa solution. Sequences of the S-oligonucleotides were as follows:
Cells plated at a density of 5×10^5 cells/100 mm dish were transfected in triplicate with sense or antisense S-oligonucleotides designated to suppress the expression of CXADRL1, GCUD1, or RNF43. […] Subsequently, the cells were lysed by the addition of 1 ml of 0.01 N HCl/10% SDS and the absorbance of lysates was measured with ELISA plate reader at a test wavelength of 570 nm (reference, 630 nm). The cell viability was represented by the absorbance compared to that of control cells.

Another data set relates to MKN74. Nature of the data set: Cytotoxicity of CTL clone against tumor cell line MKN74. As to conditions: expresses CXADRL1 but not HLA-A*0201. It is filed as cell-based, human.
Data set [1] deals with T2 cells (HLA-A*0201). As to the kind of experiment: 51Cr-release cytotoxicity assay of peptide-induced CTLs on T2 cells. As to conditions: for Cytotoxic activity of peptide-induced CTL line/clone on non-pulsed target: T2 not pulsed with any peptide; for Cytotoxic activity of peptide-induced CTL line/clone on peptide-pulsed target: T2 pulsed with the peptide.
Description: (§1) Target cells were labeled with 100 μCi of Na2^51CrO4 (Perkin Elmer Life Sciences) for 1 h at 37° C. in a CO2 incubator. When peptide-pulsed targets were used, target cells were incubated with the addition of 20 μg/ml of the peptide for 16 h at 37° C. before the labeling with Na2^51CrO4. Target cells were rinsed and mixed with effectors at a final volume of 0.2 ml in round-bottom microtiter plates. The plates were centrifuged (4 minutes at 800×g) to increase cell-to-cell contact and placed in a CO2 incubator at 37° C. After 4 h of incubation, 0.1 ml of the supernatant was collected from each well and the radioactivity was determined with a gamma counter. In case of evaluating cytotoxicity against target cells that endogenously express RNF43, CXADRL1, or GCUD1, the cytolytic activity was tested in the presence of a 30-fold excess of unlabeled K562 cells to reduce any non-specific lysis due to NK-like effectors. […] The MHC restriction was examined by blocking assay, measuring the inhibition of the cytotoxicity with anti-HLA-class I (W6/32) antibody and anti-HLA-class II antibody, or anti-CD4 antibody and anti-CD8 antibody (DAKO).
(§2) The percentage of specific cytotoxicity was determined by calculating the percentage of specific ^51Cr-release by the following formula: {(cpm of the test sample release−cpm of the spontaneous release)/(cpm of the maximum release−cpm of the spontaneous release)}×100. Spontaneous release was determined by incubating the target cells alone in the absence of effectors, and the maximum release was obtained by incubating the targets with 1N HCl. All determinants were done in duplicate, and the standard errors of the means were consistently below 10% of the value of the mean.
A further data set deals with SNU475. As to the kind of experiment: Cytotoxicity of CTLs against tumor cell line SNU475. As to conditions: SNU475 expresses CXADRL1, GCUD1 and HLA-A*0201. It is filed as cell-based, human.
For data set [2], the system named is SNU-C4. Nature of the data set: Cytotoxicity of CTL clone against tumor cell line SNU-C4. To be noted: HLA-A*0201 but not CXADRL1; RNF43 but little HLA-A24.
Description: (§3) Target cells were labeled with 100 μCi of Na2^51CrO4 (Perkin Elmer Life Sciences) for 1 h at 37° C. in a CO2 incubator. When peptide-pulsed targets were used, target cells were incubated with the addition of 20 μg/ml of the peptide for 16 h at 37° C. before the labeling with Na2^51CrO4. Target cells were rinsed and mixed with effectors at a final volume of 0.2 ml in round-bottom microtiter plates. The plates were centrifuged (4 minutes at 800×g) to increase cell-to-cell contact and placed in a CO2 incubator at 37° C. After 4 h of incubation, 0.1 ml of the supernatant was collected from each well and the radioactivity was determined with a gamma counter. In case of evaluating cytotoxicity against target cells that endogenously express RNF43, CXADRL1, or GCUD1, the cytolytic activity was tested in the presence of a 30-fold excess of unlabeled K562 cells to reduce any non-specific lysis due to NK-like effectors. […]
(§4) The percentage of specific cytotoxicity was determined by calculating the percentage of specific ^51Cr-release by the following formula: {(cpm of the test sample release−cpm of the spontaneous release)/(cpm of the maximum release−cpm of the spontaneous release)}×100. Spontaneous release was determined by incubating the target cells alone in the absence of effectors, and the maximum release was obtained by incubating the targets with 1N HCl. […]
For a further data set, the system named is SNU475 cells. As to the kind of experiment: Blocking assay with antibodies, target SNU475. Type of data set: cell-based, human.
Data set [3] deals with T2 cells (HLA-A*0201).
Description: as §1, §2
Another data set deals with MKN45. Nature of the data set: Cytotoxicity of CTL clone against tumor cell line MKN45. Type of data set: cell-based, human. To be noted: expresses GCUD1 but not HLA-A*0201.
For data set [4], the system named is SNU-C4.
Description: as §3, §4

Description for DLD-1: as §3, §4
Description for HCT116: as §3, §4
Description for HT29: as §1, §2
Description for MKN45: as §3, §4
Description for MKN74: as §3, §4
Description for SNU475 cells: as §1
Description for TISI cells (HLA-A24/24): as §1, §2
Description for WiDR cells: as §1

Turning to “5′-ACCACTCATGCTACCA-3′ (phosphorothioate, further chemistry not given here) [RNF43-AS1, antisense S-oligonucleotide]”, in the data set with RNF43, the “Expression of RNF43 compared to control S-oligonucleotides (RNF43-S1)” value is recorded as “significantly suppressed”. For the same substance, the “Number of surviving cells compared with RNF43-S1” value in the data set on LoVo colon cancer cells was “significantly fewer”.
Consider ALSSGLYQC [CXADRL1-207, ALSSGLYQC], for which, in the data set on MKN74, the “Cytotoxic activity of CTL clone against MKN74” value is reported as “not against”. Also, in the data set with T2 cells (HLA-A*0201) [1], the “Cytotoxic activity of peptide-induced CTL line/clone on non-pulsed target” value is given as “without showing any cytotoxic activity” and the “Cytotoxic activity of peptide-induced CTL line/clone on peptide-pulsed target” value was “very potent cytotoxic activity”. Moreover, in the data set with SNU475, the “Cytotoxic activity of peptide-induced CTLs against SNU475” value is recorded as “potent cytotoxic activity”. The “Cytotoxic activity of CTL clone against SNU-C4” value with SNU-C4 [2] was “not against”. Moreover, the “Cytotoxicity of CTL clone against SNU475 with anti-HLA-Class I antibody and anti-CD8 antibody” value in the data set on SNU475 cells is “significantly inhibited”.
Regarding ALWPWLLMAT [RNF43-11, ALWPWLLMAT], in the data set on T2 cells (HLA-A*0201) [3], the “Cytotoxic activity of peptide-induced CTL line/clone on peptide-pulsed target” value was “higher cytotoxic activity”. The “Cytotoxic activity of CTL clone on DLD-1” value in the data set with DLD-1 was “high cytotoxic activity”. Besides, the “Cytotoxic activity of CTL clone on HT29” value in the data set on HT29 is “no significant cytotoxic activity”.
Take KMDAEHPEL [GCUD1-196, KMDAEHPEL]: in the data set on T2 cells (HLA-A*0201) [1], the “Cytotoxic activity of peptide-induced CTL line/clone on non-pulsed target” value is “without showing any cytotoxic activity” and the “Cytotoxic activity of peptide-induced CTL line/clone on peptide-pulsed target” value is given as “very potent cytotoxic activity”. Further, the “Cytotoxic activity of peptide-induced CTLs against SNU475” value with SNU475 is “potent cytotoxic activity”. In the data set with MKN45, the “Cytotoxic activity of CTL clone against MKN45” value is listed as “not against”. Moreover, the “Cytotoxicity of CTL clone against SNU475 with anti-HLA-Class I antibody and anti-CD8 antibody” value with SNU475 cells is “significantly inhibited”.
With NSQPVWLCL [RNF43-721, NSQPVWLCL], the “Cytotoxic activity of CTL clone against SNU-C4” value in the data set on SNU-C4 [4] was “did not show any cytotoxic activity”. Besides, in the data set with WiDR cells, the “Cytotoxicity of CTL clone on WiDR with anti-HLA-Class I, CD3, and CD8 antibodies” value is reported as “significantly inhibited”. In the data set on TISI cells (HLA-A24/24), the “Cytotoxic activity of CTL clone on irrelevant peptide pulsed TISI” value was “did not show any cytotoxic activity”, the “Cytotoxicity of CTL lines (9mer) ×2 Pep(+)” value is on record as 26%, the “Cytotoxicity of CTL lines (9mer) ×2 Pep(−)” value was found to be 0% and the “Cytotoxicity of CTL lines (9mer) ×20 Pep(+)” value was found to be 68%. Besides, the “Cytotoxicity of CTL lines (9mer) ×20 Pep(−)” value in the data set on TISI cells (HLA-A24/24) is given as 0%. The “Cytotoxic activity of CTL clone on HCT116” value in the data set on HCT116 is recorded as “did not show any cytotoxic activity”. The “Cytotoxic activity of CTL clone on WiDR” value in the data set on WiDR is on record as “potent cytotoxic activity”. Further, the “Cytotoxic activity of CTL clone on HT29” value in the data set on HT29 is given as “potent cytotoxic activity”.
